Assay results: article PMC8776063, “Aurora Kinase A Is Involved in Controlling the Localization of Aquaporin-2 in Renal Principal Cells” (International Journal of Molecular Sciences, 2022)
Read-outs that look alike come from different tables or passages of the source.

Legend:
[1] = tested on: CFL1 phosphorylation in MCD4 cells; test: CFL1 phosphorylation, Western blotting; assay type: cell-based, mouse; conditions: compound 30 µM, 1 h; for CFL1 phosphorylation: absence and presence of forskolin; for CFL1 phosphorylation in combination with forskolin: forskolin 30 µM, 30 min
AURKA = conditions: cited from earlier work
HCT116 = tested on: HCT116; set-up: method as in PMID 19402633, PMID 30097580; conditions: colon cancer cell line HCT116; cited from earlier work
[2] = tested on: CFL1 phosphorylation in primary IMCD cells; test: CFL1 phosphorylation, Western blotting; assay type: cell-based, rat; conditions: compound 20 µM, 1 h
EPHA2 = target: T1, EPHA2 (Homo sapiens, UniProt P29317); test: Thermal shift assay; assay type: binding; conditions: read-out: ΔTm EPHA2
T1 construct: purchased in-house thermal shift (DSF) kinase panel (SGC Frankfurt); Promega NanoBRET for AURKA/B/C
T1 sequence (P29317 596-900): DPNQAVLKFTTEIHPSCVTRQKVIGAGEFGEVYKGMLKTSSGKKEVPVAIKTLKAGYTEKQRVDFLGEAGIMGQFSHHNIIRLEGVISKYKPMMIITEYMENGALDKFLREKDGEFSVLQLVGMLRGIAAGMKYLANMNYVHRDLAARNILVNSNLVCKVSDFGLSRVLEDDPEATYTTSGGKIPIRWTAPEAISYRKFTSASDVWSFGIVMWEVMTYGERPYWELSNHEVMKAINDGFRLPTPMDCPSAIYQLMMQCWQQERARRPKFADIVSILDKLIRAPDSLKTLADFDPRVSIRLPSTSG

DAPK3 = target: T2, DAPK3 (Homo sapiens, UniProt O43293); test: Thermal shift assay; assay type: binding; conditions: read-out: ΔTm DAPK3
T2 construct: purchased in-house thermal shift (DSF) kinase panel (SGC Frankfurt); Promega NanoBRET for AURKA/B/C

primary IMCD cells = test: AQP2 redistribution, immunofluorescence microscopy; conditions: for inhibition of the AVP-induced redistribution of AQP2 to the plasma membrane: 1 h (Aurora-A inhibitor I 1-30 µM)
ABL1 = target: T3, ABL1 (Homo sapiens, UniProt P00519); test: Thermal shift assay; assay type: binding; conditions: read-out: ΔTm ABL1
T3 construct: purchased in-house thermal shift (DSF) kinase panel (SGC Frankfurt); Promega NanoBRET for AURKA/B/C
T3 sequence (P00519 229-512): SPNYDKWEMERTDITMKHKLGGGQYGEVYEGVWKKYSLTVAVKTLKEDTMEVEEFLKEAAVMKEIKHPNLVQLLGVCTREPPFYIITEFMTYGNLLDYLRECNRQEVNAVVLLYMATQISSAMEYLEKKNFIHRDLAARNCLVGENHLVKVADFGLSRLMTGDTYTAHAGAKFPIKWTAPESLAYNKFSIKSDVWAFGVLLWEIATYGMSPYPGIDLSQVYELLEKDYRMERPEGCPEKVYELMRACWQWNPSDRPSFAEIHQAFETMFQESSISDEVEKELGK

[3] = tested on: ARID1A-deficient colorectal cancer cells; set-up: method as in PMID 30097580; conditions: cited from earlier work
MAP2K1 = target: T4, MAP2K1 (Homo sapiens, UniProt Q02750); test: Thermal shift assay; assay type: binding; conditions: read-out: ΔTm MAP2K1
T4 construct: purchased in-house thermal shift (DSF) kinase panel (SGC Frankfurt); Promega NanoBRET for AURKA/B/C

GSG2 = target: T5, GSG2 (Homo sapiens, UniProt Q8TF76); test: Thermal shift assay; assay type: binding; conditions: read-out: ΔTm GSG2
T5 construct: purchased in-house thermal shift (DSF) kinase panel (SGC Frankfurt); Promega NanoBRET for AURKA/B/C
T5 sequence (Q8TF76 465-798): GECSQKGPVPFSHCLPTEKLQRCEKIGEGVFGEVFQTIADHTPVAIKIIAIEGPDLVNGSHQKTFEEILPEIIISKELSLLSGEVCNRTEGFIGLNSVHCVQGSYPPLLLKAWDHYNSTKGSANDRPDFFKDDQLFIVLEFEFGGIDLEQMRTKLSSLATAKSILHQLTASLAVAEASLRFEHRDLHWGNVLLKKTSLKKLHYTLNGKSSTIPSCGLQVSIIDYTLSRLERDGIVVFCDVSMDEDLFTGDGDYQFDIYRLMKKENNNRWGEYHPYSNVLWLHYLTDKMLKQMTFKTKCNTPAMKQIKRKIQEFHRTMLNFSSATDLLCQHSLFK

[4] = tested on: complex of AURKA and TPX2; set-up: method as in PMID 26732741; conditions: cited from earlier work
CHEK2 = target: T6, CHEK2 (Homo sapiens, UniProt O96017); test: Thermal shift assay; assay type: binding; conditions: read-out: ΔTm CHEK2
T6 construct: purchased in-house thermal shift (DSF) kinase panel (SGC Frankfurt); Promega NanoBRET for AURKA/B/C

MCD4 cells = test: F-actin stress fiber staining (phalloidin); assay type: cell-based, mouse; conditions: compound 30 µM, 1 h
[5] = compound 20 µM, AVP 100 nM, 30 min

T6 sequence (O96017 210-531): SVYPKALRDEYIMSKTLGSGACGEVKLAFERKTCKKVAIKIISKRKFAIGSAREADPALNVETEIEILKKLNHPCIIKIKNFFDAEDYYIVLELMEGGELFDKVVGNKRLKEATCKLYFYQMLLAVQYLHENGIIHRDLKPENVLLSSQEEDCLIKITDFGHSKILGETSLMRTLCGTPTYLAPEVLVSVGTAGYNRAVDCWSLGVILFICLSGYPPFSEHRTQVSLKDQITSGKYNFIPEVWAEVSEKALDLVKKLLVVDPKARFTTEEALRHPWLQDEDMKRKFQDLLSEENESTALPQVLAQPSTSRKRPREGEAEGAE
T2 sequence (O43293 9-289): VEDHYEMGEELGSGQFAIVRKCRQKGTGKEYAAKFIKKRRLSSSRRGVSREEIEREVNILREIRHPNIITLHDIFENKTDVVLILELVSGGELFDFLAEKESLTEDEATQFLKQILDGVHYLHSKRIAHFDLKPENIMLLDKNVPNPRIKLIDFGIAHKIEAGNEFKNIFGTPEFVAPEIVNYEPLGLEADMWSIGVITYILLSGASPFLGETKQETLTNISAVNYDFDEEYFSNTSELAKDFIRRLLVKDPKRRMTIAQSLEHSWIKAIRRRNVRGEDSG
T4 sequence (Q02750 68-361): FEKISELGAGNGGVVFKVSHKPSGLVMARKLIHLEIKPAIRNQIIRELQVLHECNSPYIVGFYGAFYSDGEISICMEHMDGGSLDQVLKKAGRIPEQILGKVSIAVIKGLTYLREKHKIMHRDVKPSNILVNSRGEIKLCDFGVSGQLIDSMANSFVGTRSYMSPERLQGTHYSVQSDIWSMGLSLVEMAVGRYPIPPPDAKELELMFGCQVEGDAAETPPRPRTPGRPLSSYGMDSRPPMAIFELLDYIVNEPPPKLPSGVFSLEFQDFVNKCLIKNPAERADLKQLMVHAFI

SMILES | CFL1 phosphorylation [1] | CFL1 phosphorylation in combination with forskolin [1] | inhibition of the AVP-induced redistribution of AQP2 to the plasma membrane (primary IMCD cells; [5]) | effect on actin stress fibers (MCD4 cells) | ΔTm at 10 µM (EPHA2; compound 10 µM, n = 3) [°C] | ΔTm at 10 µM (DAPK3; compound 10 µM, n = 3) [°C] | ΔTm at 10 µM (ABL1; compound 10 µM, n = 3) [°C] | ΔTm at 10 µM (MAP2K1; compound 10 µM, n = 3) [°C] | ΔTm at 10 µM (GSG2; compound 10 µM, n = 3) [°C] | ΔTm at 10 µM (CHEK2; compound 10 µM, n = 3) [°C] | also measured
CCN1CCN(C(=O)Cc2ccc(Nc3ncc(F)c(Nc4ccc(C(=O)Nc5ccccc5Cl)cc4)n3)cc2)CC1 [Aurora-A inhibitor I, reference compound] | significantly decreased | Significant additive effects | inhibits | depolymerization of actin stress fibers | – | – | – | – | – | – | IC50 (AURKA; cell-free assay): 3.4 nM; selectivity for AURKA over AURKB (AURKA): 1000 fold; antiproliferative effects (HCT116): Antiproliferative effects; CFL1 phosphorylation [2]: Relatively low levels; ΔTm at 10 µM (EPHA2): 1.4 °C; ΔTm at 10 µM (DAPK3): 2.8 °C; effective concentration for inhibition of AQP2 redistribution (primary IMCD cells; 1, 10 or 30 µM, 1 h, AVP 100 nM, 30 min): greater than 1 µM; ΔTm at 10 µM (ABL1): 3.1 °C; cell cycle arrest, multinucleation and apoptosis [3]: G2/M cell cycle arrest, multinucleation, and apoptosis; ΔTm at 10 µM (MAP2K1): 0.2 °C; ΔTm at 10 µM (GSG2): 0 °C; increase of binding to the AURKA-TPX2 complex [4]: 2.4 fold; ΔTm at 10 µM (CHEK2): 2.2 °C
CCN1CCN(C(=O)Cc2ccc(Nc3ncc(F)c(Nc4ccc(C(=O)O)cc4)n3)cc2)CC1 [ERJ2-12] | no effect | – | significantly differed | resembled those of the control cells | 1.6 | 0.7 | 2.6 | -0.1 | 0 | 0.3 | –
CCN1CCN(C(=O)Cc2ccc(Nc3ncc(F)c(Nc4ccc(C(=O)Nc5ccccc5)cc4)n3)cc2)CC1 [ERJ2-11] | – | Significant additive effects | no significant difference between resting and AVP-stimulated cells | promoted or maintained the formation of actin stress fibers | 1.8 | 3.5 | 3.6 | 0 | 0 | 3.6 | AQP2 fluorescence intensity ratio compared to DMSO-treated control cells (primary IMCD cells; compound 20 µM, 1 h): significant decrease
O=C(Cc1ccc(Nc2ncc(F)c(Nc3ccc(C(=O)Nc4ccccc4Cl)cc3)n2)cc1)NCCN1CCOCC1 [ERJ2-04] | – | Significant additive effects | no significant difference between resting and AVP-stimulated cells | Comparable effects | 0.3 | 2.4 | 1.1 | 0 | 0 | 1.2 | –
NC(=O)Cc1ccc(Nc2ncc(F)c(Nc3ccc(C(=O)Nc4ccccc4Cl)cc3)n2)cc1 [ERJ2-06] | – | Significant additive effects | no significant difference between resting and AVP-stimulated cells | Comparable effects | 0.8 | 4.8 | 1.7 | 0 | 0.2 | 3.5 | –
